How the values were obtained:
barnyard grass [1] = test: Test Example 3: herbicidal effect by foliage application, Wagner pot (Table 18, symbol H); format: in vivo, barnyard grass (Echinochloa crus-galli); settings: amount of applied herbicide 320 g/ha
Summary of the method: (§1)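 Plants were sown in alluvial soil held under 0.1–0.5 cm standing water and grown 14 days in a greenhouse at 25–30 °C. An emulsifiable formulation, water-diluted to the set dose, was then sprayed onto the foliage, and effects were scored three weeks later using previously defined criteria.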

Chinese sprangletop = test: Test Example 3: herbicidal effect by foliage application, Wagner pot (Table 18, symbol D); format: in vivo, chinese sprangletop (Leptochloa chinensis); settings: amount of applied herbicide 320 g/ha
Summary of the method: as §1

rice flat sedge = test: Test Example 3: herbicidal effect by foliage application, Wagner pot (Table 18, symbol E); format: in vivo, rice flat sedge (Cyperus iria); settings: amount of applied herbicide 320 g/ha
Summary of the method: as §1

southern crabgrass [2] = test: Test Example 4: herbicidal effect by soil treatment (Table 19, symbol F); format: in vivo, southern crabgrass (Digitaria ciliaris); settings: amount of applied herbicide 320 g/ha
Summary of the method: (§2)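 Emulsion of test compound, water-diluted to predetermined amount, sprayed on soil after sowing (seed depth ~1.5 cm, sterilized diluvial soil). Greenhouse, 25–30° C. Effect graded at three weeks post-spray.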

green foxtail [3] = test: Test Example 4: herbicidal effect by soil treatment (Table 19, symbol G); format: in vivo, green foxtail (Setaria viridis); settings: amount of applied herbicide 320 g/ha
Summary of the method: as §2

barnyard grass [4] = test: Test Example 4: herbicidal effect by soil treatment (Table 19, symbol H); format: in vivo, barnyard grass (Echinochloa crus-galli); settings: amount of applied herbicide 320 g/ha
Summary of the method: as §2

wild oat [5] = test: Test Example 4: herbicidal effect by soil treatment (Table 19, symbol I); format: in vivo, wild oat (Avena fatua); settings: amount of applied herbicide 320 g/ha
Summary of the method: as §2

blackgrass [6] = test: Test Example 4: herbicidal effect by soil treatment (Table 19, symbol J); format: in vivo, blackgrass (Alopecurus myosuroides); settings: amount of applied herbicide 320 g/ha
Summary of the method: as §2

Italian ryegrass [7] = test: Test Example 4: herbicidal effect by soil treatment (Table 19, symbol K); format: in vivo, Italian ryegrass (Lolium multiflorum); settings: amount of applied herbicide 320 g/ha
Summary of the method: as §2

windgrass [8] = test: Test Example 4: herbicidal effect by soil treatment (Table 19, symbol L); format: in vivo, windgrass (Apera spica-venti); settings: amount of applied herbicide 320 g/ha
Summary of the method: as §2

velvetleaf [9] = test: Test Example 4: herbicidal effect by soil treatment (Table 19, symbol M); format: in vivo, velvetleaf (Abutilon theophrasti); settings: amount of applied herbicide 320 g/ha
Summary of the method: as §2

redroot pigweed [10] = test: Test Example 4: herbicidal effect by soil treatment (Table 19, symbol N); format: in vivo, redroot pigweed (Amaranthus retroflexus); settings: amount of applied herbicide 320 g/ha
Summary of the method: as §2

lambsquarters [11] = test: Test Example 4: herbicidal effect by soil treatment (Table 19, symbol O); format: in vivo, lambsquarters (Chenopodium album); settings: amount of applied herbicide 320 g/ha
Summary of the method: as §2

chickweed [12] = test: Test Example 4: herbicidal effect by soil treatment (Table 19, symbol P); format: in vivo, common chickweed (Stellaria media); settings: amount of applied herbicide 320 g/ha
Summary of the method: as §2

false cleavers = test: Test Example 4: herbicidal effect by soil treatment (Table 19, symbol Q); format: in vivo, false cleavers (Galium spurium); settings: amount of applied herbicide 320 g/ha
Summary of the method: as §2

persian speedwell [13] = test: Test Example 4: herbicidal effect by soil treatment (Table 19, symbol R); format: in vivo, Persian speedwell (Veronica persica); settings: amount of applied herbicide 320 g/ha
Summary of the method: as §2

southern crabgrass [14] = test: Test Example 5: herbicidal effect by foliage application, plastic box (Table 20, symbol F); format: in vivo, southern crabgrass (Digitaria ciliaris); settings: foliage application, 320 g/ha, evaluated three weeks after application
Summary of the method: (§3)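 Post-emergence foliar test in sterilized diluvial soil. Compound applied as water-diluted emulsion at a predetermined rate to 14-day-old plants; evaluation at three weeks.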

green foxtail [15] = test: Test Example 5: herbicidal effect by foliage application, plastic box (Table 20, symbol G); format: in vivo, green foxtail (Setaria viridis); settings: foliage application, 320 g/ha, evaluated three weeks after application
Summary of the method: as §3

barnyard grass [16] = test: Test Example 5: herbicidal effect by foliage application, plastic box (Table 20, symbol H); format: in vivo, barnyard grass (Echinochloa crus-galli); settings: foliage application, 320 g/ha, evaluated three weeks after application
Summary of the method: as §3

wild oat [17] = test: Test Example 5: herbicidal effect by foliage application, plastic box (Table 20, symbol I); format: in vivo, wild oat (Avena fatua); settings: foliage application, 320 g/ha, evaluated three weeks after application
Summary of the method: as §3

blackgrass [18] = test: Test Example 5: herbicidal effect by foliage application, plastic box (Table 20, symbol J); format: in vivo, blackgrass (Alopecurus myosuroides); settings: foliage application, 320 g/ha, evaluated three weeks after application
Summary of the method: as §3

Italian ryegrass [19] = test: Test Example 5: herbicidal effect by foliage application, plastic box (Table 20, symbol K); format: in vivo, Italian ryegrass (Lolium multiflorum); settings: foliage application, 320 g/ha, evaluated three weeks after application
Summary of the method: as §3

windgrass [20] = test: Test Example 5: herbicidal effect by foliage application, plastic box (Table 20, symbol L); format: in vivo, windgrass (Apera spica-venti); settings: foliage application, 320 g/ha, evaluated three weeks after application
Summary of the method: as §3

velvetleaf [21] = test: Test Example 5: herbicidal effect by foliage application, plastic box (Table 20, symbol M); format: in vivo, velvetleaf (Abutilon theophrasti); settings: foliage application, 320 g/ha, evaluated three weeks after application
Summary of the method: as §3

redroot pigweed [22] = test: Test Example 5: herbicidal effect by foliage application, plastic box (Table 20, symbol N); format: in vivo, redroot pigweed (Amaranthus retroflexus); settings: foliage application, 320 g/ha, evaluated three weeks after application
Summary of the method: as §3

lambsquarters [23] = test: Test Example 5: herbicidal effect by foliage application, plastic box (Table 20, symbol O); format: in vivo, lambsquarters (Chenopodium album); settings: foliage application, 320 g/ha, evaluated three weeks after application
Summary of the method: as §3

chickweed [24] = test: Test Example 5: herbicidal effect by foliage application, plastic box (Table 20, symbol P); format: in vivo, common chickweed (Stellaria media); settings: foliage application, 320 g/ha, evaluated three weeks after application
Summary of the method: as §3

persian speedwell [25] = test: Test Example 5: herbicidal effect by foliage application, plastic box (Table 20, symbol R); format: in vivo, Persian speedwell (Veronica persica); settings: foliage application, 320 g/ha, evaluated three weeks after application
Summary of the method: as §3

Structure (SMILES) | herbicidal effect on H: barnyard grass (barnyard grass [1]) | herbicidal effect on D: Chinese sprangletop (Chinese sprangletop) | herbicidal effect on E: rice flat sedge (rice flat sedge) | F: southern crabgrass, herbicidal effect rating (southern crabgrass [2]) | G: green foxtail, herbicidal effect rating (green foxtail [3]) | H: barnyard grass, herbicidal effect rating (barnyard grass [4]) | I: wild oat, herbicidal effect rating (wild oat [5]) | J: blackgrass, herbicidal effect rating (blackgrass [6]) | K: Italian ryegrass, herbicidal effect rating (Italian ryegrass [7]) | L: windgrass, herbicidal effect rating (windgrass [8]) | M: velvetleaf, herbicidal effect rating (velvetleaf [9]) | N: redroot pigweed, herbicidal effect rating (redroot pigweed [10]) | O: lambsquarters, herbicidal effect rating (lambsquarters [11]) | P: chickweed, herbicidal effect rating (chickweed [12]) | Q: false cleavers, herbicidal effect rating (false cleavers) | R: persian speedwell, herbicidal effect rating (persian speedwell [13]) | other results
Cc1ccc2sc(-c3ccccc3)c(-c3c(O)c(C)nn(C)c3=O)c2c1 [2-132] | 0 (Herbicidal rate of 5% or less (almost no effect)) | 0 (Herbicidal rate of 5% or less (almost no effect)) | 5 (Herbicidal rate of 90% or more (almost completely withered)) | 1 (Herbicidal rate of 5% or more and less than 20%) | 3 (Herbicidal rate of 40% or more and less than 70%) | 3 (Herbicidal rate of 40% or more and less than 70%) | 0 (Herbicidal rate of 5% or less (almost no effect)) | 0 (Herbicidal rate of 5% or less (almost no effect)) | 2 (Herbicidal rate of 20% or more and less than 40%) | 0 (Herbicidal rate of 5% or less (almost no effect)) | 0 (Herbicidal rate of 5% or less (almost no effect)) | 0 (Herbicidal rate of 5% or less (almost no effect)) | 5 (Herbicidal rate of 90% or more (almost completely withered)) | 4 (Herbicidal rate of 70% or more and less than 90%) | 0 (Herbicidal rate of 5% or less (almost no effect)) | 3 (Herbicidal rate of 40% or more and less than 70%) | herbicidal effect on F: southern crabgrass (southern crabgrass [14]): 1 (Herbicidal rate of 5% or more and less than 20%); herbicidal effect on G: green foxtail (green foxtail [15]): 3 (Herbicidal rate of 40% or more and less than 70%); herbicidal effect on H: barnyard grass (barnyard grass [16]): 0 (Herbicidal rate of 5% or less (almost no effect)); herbicidal effect on I: wild oat (wild oat [17]): 0 (Herbicidal rate of 5% or less (almost no effect)); herbicidal effect on J: blackgrass (blackgrass [18]): 2 (Herbicidal rate of 20% or more and less than 40%); herbicidal effect on K: Italian ryegrass (Italian ryegrass [19]): 5 (Herbicidal rate of 90% or more (almost completely withered)); herbicidal effect on L: windgrass (windgrass [20]): 0 (Herbicidal rate of 5% or less (almost no effect)); herbicidal effect on M: velvetleaf (velvetleaf [21]): 3 (Herbicidal rate of 40% or more and less than 70%); herbicidal effect on N: redroot pigweed (redroot pigweed [22]): 5 (Herbicidal rate of 90% or more (almost completely withered)); herbicidal effect on O: lambsquarters (lambsquarters [23]): 4 (Herbicidal rate of 70% or more and less than 90%); herbicidal effect on P: chickweed (chickweed [24]): 5 (Herbicidal rate of 90% or more (almost completely withered)); herbicidal effect on R: persian speedwell (persian speedwell [25]): 5 (Herbicidal rate of 90% or more (almost completely withered))
Cc1ccc2sc(-c3ccc([N+](=O)[O-])cc3)c(-c3c(O)c(C)nn(C)c3=O)c2c1 [2-144] | 2 (Herbicidal rate of 20% or more and less than 40%) | 0 (Herbicidal rate of 5% or less (almost no effect)) | 3 (Herbicidal rate of 40% or more and less than 70%) | 2 (Herbicidal rate of 20% or more and less than 40%) | 0 (Herbicidal rate of 5% or less (almost no effect)) | 0 (Herbicidal rate of 5% or less (almost no effect)) | 0 (Herbicidal rate of 5% or less (almost no effect)) | 0 (Herbicidal rate of 5% or less (almost no effect)) | 0 (Herbicidal rate of 5% or less (almost no effect)) | 0 (Herbicidal rate of 5% or less (almost no effect)) | 0 (Herbicidal rate of 5% or less (almost no effect)) | 3 (Herbicidal rate of 40% or more and less than 70%) | 3 (Herbicidal rate of 40% or more and less than 70%) | 1 (Herbicidal rate of 5% or more and less than 20%) | 0 (Herbicidal rate of 5% or less (almost no effect)) | 2 (Herbicidal rate of 20% or more and less than 40%) | herbicidal effect on F: southern crabgrass (criteria 0-5) (southern crabgrass [14]): 0 (Herbicidal rate of 5% or less (almost no effect)); herbicidal effect on G: green foxtail (criteria 0-5) (green foxtail [15]): 0 (Herbicidal rate of 5% or less (almost no effect)); herbicidal effect on H: barnyard grass (criteria 0-5) (barnyard grass [16]): 0 (Herbicidal rate of 5% or less (almost no effect)); herbicidal effect on I: wild oat (criteria 0-5) (wild oat [17]): 0 (Herbicidal rate of 5% or less (almost no effect)); herbicidal effect on J: blackgrass (criteria 0-5) (blackgrass [18]): 0 (Herbicidal rate of 5% or less (almost no effect)); herbicidal effect on K: Italian ryegrass (criteria 0-5) (Italian ryegrass [19]): 4 (Herbicidal rate of 70% or more and less than 90%); herbicidal effect on L: windgrass (criteria 0-5) (windgrass [20]): 0 (Herbicidal rate of 5% or less (almost no effect)); herbicidal effect on M: velvetleaf (criteria 0-5) (velvetleaf [21]): 2 (Herbicidal rate of 20% or more and less than 40%); herbicidal effect on N: redroot pigweed (criteria 0-5) (redroot pigweed [22]): 5 (Herbicidal rate of 90% or more (almost completely withered)); herbicidal effect on O: lambsquarters (criteria 0-5) (lambsquarters [23]): 3 (Herbicidal rate of 40% or more and less than 70%); herbicidal effect on P: chickweed (criteria 0-5) (chickweed [24]): 4 (Herbicidal rate of 70% or more and less than 90%); herbicidal effect on R: persian speedwell (criteria 0-5) (persian speedwell [25]): 5 (Herbicidal rate of 90% or more (almost completely withered))

From US20230085307A1, “PYRIDAZINONE COMPOUND AND HERBICIDE” (NISSAN CHEMICAL CORPORATION, priority 2019, published 2023)
